# Patent US20150004134A1, “TREATMENT OF CANCER WITH HETEROCYCLIC INHIBITORS OF GLUTAMINASE” (Calithera Biosciences, Inc., priority 2012, published 2015)
# Where two headings read alike, the source gives them in different places.
# Experiments:
# [1] = target: T1, recombinant form of Glutaminase 1 (GAC) (Homo sapiens, UniProt O94925); experiment: Recombinant Enzyme Assay - Time Dependence (60 min preincubation); assay type: biochemical; conditions: read-out: GAC Delta N2 IC50 60 min preinc
# T1 sequence (O94925 137-598 isoform O94925-3 limits assumed): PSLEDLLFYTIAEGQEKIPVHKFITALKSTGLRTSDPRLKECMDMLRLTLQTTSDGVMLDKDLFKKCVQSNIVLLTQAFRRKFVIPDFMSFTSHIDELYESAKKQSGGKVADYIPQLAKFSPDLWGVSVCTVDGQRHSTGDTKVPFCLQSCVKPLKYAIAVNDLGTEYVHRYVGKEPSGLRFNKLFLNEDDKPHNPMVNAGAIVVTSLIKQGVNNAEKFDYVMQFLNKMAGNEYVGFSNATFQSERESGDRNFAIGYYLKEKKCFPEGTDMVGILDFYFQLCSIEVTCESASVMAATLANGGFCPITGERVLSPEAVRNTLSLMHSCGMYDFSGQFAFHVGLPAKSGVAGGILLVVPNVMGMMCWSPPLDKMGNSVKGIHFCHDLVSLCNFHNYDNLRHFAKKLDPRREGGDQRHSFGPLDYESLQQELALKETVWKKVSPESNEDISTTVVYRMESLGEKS
# Outline: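 Enzyme and compound preincubated 60 min at 20° C; reaction started with substrate buffer (50 mM Tris-HCl pH 8.0, 150 mM K2HPO4, 1 mM DTT, 20 mM L-glutamine, 2 mM NAD^+). NADH formation followed at 340 nm in kinetic mode for 15 min at 20° C; slopes (mAU/min) compared with DMSO and control-compound wells.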
# [2] = target: T1, recombinant form of Glutaminase 1 (GAC); experiment: Recombinant Enzyme Assay (no preincubation); assay type: biochemical; conditions: read-out: GAC Delta N2 IC50 no preinc;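 note: GDH-coupled GAC activity read as absorbance at 340 nm in kinetic mode over 15 min at 20 °C, slopes compared with a DMSO-only control, lower slope means inhibition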
# Description: Compounds were assessed for their ability to inhibit the enzymatic activity of a recombinant form of Glutaminase 1 (GAC) using a biochemical assay that couples the production of glutamate (liberated by GAC) to glutamate dehydrogenase (GDH) and measuring the change in absorbance for the reduction of NAD^+ to NADH. […] Enzymatic reaction was started with the addition of 50 μL of enzyme solution (50 mM Tris-HCl pH 8.0, 0.2 mM EDTA, 150 mM K2HPO4, 0.1 mg/ml BSA, 1 mM DTT, 10 ppm antifoam, 4 units/ml GDH, 4 mM adenosine diphosphate, and 4 nM GAC) and read in a Molecular Devices M5 plate reader at 20° C. The plate reader was configured to read absorbance (λ=340 nm) in kinetic mode for 15 minutes. Data was recorded as milli-absorbance units per minute and slopes were compared to a control compound and a DMSO-only control on the same plate. Compounds with slopes less than the DMSO control were considered inhibitors and plate variability was assessed using the control compound.
# P493-6 (myc "on") cells = experiment: Cell Proliferation Assay; assay type: cell-based; conditions: P493-6, 72 h
# Outline: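 Read-out: either Cell Titer Glo or Guava Viacount flow analysis after 72 h compound treatment of myc-on P493-6 cells (10,000/well, RPMI with 10% FBS) at 37 °C. DMSO held at 0.5% final.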
# [3] = read-out: Cell prolif P493 72 h IC50, P493 cells, 72 h
# [4] = read-out: Cell prolif P493 72 h IC50, P493-6 cells, 72 h
SMILES,IC50 [1],IC50 [2],"IC50 (P493-6 (myc ""on"") cells; [3])","IC50 (P493-6 (myc ""on"") cells; [4])"
"O=C(Nc1nnc(CCCCc2nnc(NC(=O)C(CO)c3ccccc3)s2)s1)C(CO)c1ccccc1 (stereo not drawn) [Compound 36, N,N′-[5,5′-(butane-1,4-diyl)-bis(1,3,4-thiadiazole-5,2-diyl)]-bis(3-hydroxy-2-phenylpropanamide)]",40 nM,220 nM,160 nM,–
NCc1cccc(CC(=O)Nc2nnc(CCCCc3nnc(NC(=O)Cc4cccc(CN)c4)s3)s2)c1 [Compound 325],170 nM,660 nM,30 nM,–
O=C(Cc1ccccc1)Nc1ccc(CCCCc2nnc(NC(=O)Cc3cccnc3)s2)nn1 [Compound 355],–,100 nM,39 nM,–
COc1cccc(CC(=O)Nc2nnc(CCSCCc3nnc(NC(=O)Cc4ccccn4)s3)s2)c1 [Compound 360],–,280 nM,670 nM,–
O=C(Cc1ccccc1)Nc1nnc(CCCCc2ccc(NC(=O)C(O)c3ccccc3)nn2)s1 (stereo not drawn) [Compound 364],30 nM,150 nM,260 nM,–
O=C(Cc1ccccc1)Nc1nnc(CCCCc2ccc(NC(=O)C(O)c3cccc(Cl)c3)nn2)s1 (stereo not drawn) [Compound 365],9 nM,92 nM,89 nM,–
COc1cccc(CC(=O)Nc2ccc(CCCCc3nnc(NC(=O)Cc4ccccc4)s3)nn2)c1 [Compound 366],–,74 nM,24 nM,–
NCc1cccc(CC(=O)Nc2ccc(CCCCc3nnc(NC(=O)Cc4ccccc4)s3)nn2)c1 [Compound 368],9 nM,110 nM,17 nM,–
CC(C)(C)OC(=O)NCc1cccc(CC(=O)Nc2nnc(CCCCc3nnc(NC(=O)Cc4ccccc4)s3)s2)c1 [Compound 375],5 nM,380 nM,41 nM,–
O=C(Cc1ccccc1)Nc1ccc(CCCCc2nnc(NC(=O)Cc3cccc(-n4ccnc4)c3)s2)nn1 [Compound 379],–,97 nM,38 nM,–
Cc1nccn1Cc1cccc(CC(=O)Nc2nnc(CCCCc3ccc(NC(=O)Cc4ccccc4)nn3)s2)c1 [Compound 380],–,120 nM,19 nM,–
O=C(Cc1ccccc1)Nc1ccc(CCCCc2nnc(NC(=O)Cc3cccc(OCCN4CCOCC4)c3)s2)nn1 [Compound 381],–,160 nM,18 nM,–
CCOC(=O)NCc1cccc(CC(=O)Nc2nnc(CCCCc3ccc(NC(=O)Cc4ccccc4)nn3)s2)c1 [Compound 382],3 nM,99 nM,7 nM,–
O=C(Cc1ccccn1)Nc1ccc(CCCCc2nnc(NC(=O)Cc3ccccc3)s2)nn1 [Compound 383],–,86 nM,22 nM,–
CCOC(=O)NCc1cccc(CC(=O)Nc2ccc(CCCCc3nnc(NC(=O)Cc4ccccc4)s3)nn2)c1 [Compound 384],3 nM,81 nM,5 nM,–
Nc1ccc(CCCCc2nnc(NC(=O)Cc3cccc(OCc4ccccc4)c3)s2)nn1 [Compound 385],–,260 nM,720 nM,–
O=C(Cc1ccccc1)Nc1ccc(CCCCc2nnc(NC(=O)OCc3ccccc3)s2)nn1 [Compound 386],–,85 nM,150 nM,–
O=C(Cc1cccc2cnccc12)Nc1nnc(CCCCc2nnc(NC(=O)Cc3cccc4cnccc34)s2)s1 [Compound 639],–,170 nM,–,23000 nM
O=C(Cc1cccc2[nH]ncc12)Nc1nnc(CCCCc2nnc(NC(=O)Cc3cccc4[nH]ncc34)s2)s1 [Compound 640],–,120 nM,–,70 nM
O=C(Cc1cccc2ncccc12)Nc1nnc(CCCCc2nnc(NC(=O)Cc3cccc4ncccc34)s2)s1 [Compound 641],–,140 nM,–,500 nM
